According to PubChem BioAssay AID1259407 (Chemical Carcinogenesis Research Information System (CCRIS), 2018):
Activity calls are given as the source filed them. The rule behind the calls is not given here.

Tested on: CCRIS mutagenicity, Ames/micronucleus/aberration tests
Assay: CCRIS mutagenicity studies
[1] = Test System: AMES SALMONELLA TYPHIMURIUM, Strain/Indicator: TA98, Metabolic Activation: NONE, Method: PREINCUBATION
[2] = Test System: AMES SALMONELLA TYPHIMURIUM, Strain/Indicator: TA100, Metabolic Activation: NONE, Method: PREINCUBATION
[3] = Test System: AMES SALMONELLA TYPHIMURIUM, Strain/Indicator: TA100, Metabolic Activation: NONE, Method: STANDARD PLATE
[4] = Test System: AMES SALMONELLA TYPHIMURIUM, Strain/Indicator: TA98, Metabolic Activation: RAT, LIVER, S-9, AROCLOR 1254, Method: STANDARD PLATE
[5] = Test System: Mouse lymphoma, Strain/Indicator: L5178Y (tk+/tk-), Metabolic Activation: None, Method: Suspension/plate
[6] = Test System: Mouse lymphoma, Strain/Indicator: L5178Y (tk+/tk-), Metabolic Activation: Rat, Liver, S-9, Aroclor 1254, Method: Suspension/plate

With `Nc1cc(Cl)cc(S(=O)(=O)O)c1O` the mutagenic call (Test System: AMES SALMONELLA TYPHIMURIUM, Strain/Indicator: TA97, Metabolic Activation: HAMSTER, LIVER, S-9, AROCLOR 1254 (10 OR 30%), Method: PREINCUBATION) was “inactive; negative”, the mutagenic call (Test System: AMES SALMONELLA TYPHIMURIUM, Strain/Indicator: TA97, Metabolic Activation: NONE, Method: PREINCUBATION) was “inactive; negative” and the mutagenic call (Test System: AMES SALMONELLA TYPHIMURIUM, Strain/Indicator: TA97, Metabolic Activation: RAT, LIVER, S-9, AROCLOR 1254 (10 OR 30%), Method: PREINCUBATION) was “inactive; negative”. The mutagenic call (Test System: AMES SALMONELLA TYPHIMURIUM, Strain/Indicator: TA98, Metabolic Activation: HAMSTER, LIVER, S-9, AROCLOR 1254 (10 OR 30%), Method: PREINCUBATION) was “inactive; negative”, the mutagenic call [1] was “inactive; negative” and the mutagenic call (Test System: AMES SALMONELLA TYPHIMURIUM, Strain/Indicator: TA98, Metabolic Activation: RAT, LIVER, S-9, AROCLOR 1254 (10 OR 30%), Method: PREINCUBATION) was “inactive; negative”. For the same compound, the mutagenic call (Test System: AMES SALMONELLA TYPHIMURIUM, Strain/Indicator: TA100, Metabolic Activation: HAMSTER, LIVER, S-9, AROCLOR 1254 (10 OR 30%), Method: PREINCUBATION) was “inactive; negative”, the mutagenic call [2] was “inactive; negative” and the mutagenic call (Test System: AMES SALMONELLA TYPHIMURIUM, Strain/Indicator: TA100, Metabolic Activation: RAT, LIVER, S-9, AROCLOR 1254 (10 OR 30%), Method: PREINCUBATION) was “inactive; negative”. For the same compound, the mutagenic call (Test System: AMES SALMONELLA TYPHIMURIUM, Strain/Indicator: TA1535, Metabolic Activation: HAMSTER, LIVER, S-9, AROCLOR 1254 (10 OR 30%), Method: PREINCUBATION) was “inactive; negative”, the mutagenic call (Test System: AMES SALMONELLA TYPHIMURIUM, Strain/Indicator: TA1535, Metabolic Activation: NONE, Method: PREINCUBATION) was “inactive; negative” and the mutagenic call (Test System: AMES SALMONELLA TYPHIMURIUM, Strain/Indicator: TA1535, Metabolic Activation: RAT, LIVER, S-9, AROCLOR 1254 (10 OR 30%), Method: PREINCUBATION) was “inactive; negative”.
For `CCC(C)COC(=O)/C=C/c1ccc(N=Cc2ccc(OC)cc2)cc1` (centres undefined), the mutagenic call (Test System: AMES SALMONELLA TYPHIMURIUM, Strain/Indicator: TA98, Metabolic Activation: HAMSTER, LIVER, S-9, AROCLOR 1254 (30%), Method: PREINCUBATION) was “inactive; negative”, the mutagenic call [1] was “inactive; negative” and the mutagenic call (Test System: AMES SALMONELLA TYPHIMURIUM, Strain/Indicator: TA98, Metabolic Activation: RAT, LIVER, S-9, AROCLOR 1254 (30%), Method: PREINCUBATION) was “active; positive”. The mutagenic call (Test System: AMES SALMONELLA TYPHIMURIUM, Strain/Indicator: TA100, Metabolic Activation: HAMSTER, LIVER, S-9, AROCLOR 1254 (30%), Method: PREINCUBATION) was “active; positive”, the mutagenic call [2] was “inactive; negative” and the mutagenic call (Test System: AMES SALMONELLA TYPHIMURIUM, Strain/Indicator: TA100, Metabolic Activation: RAT, LIVER, S-9, AROCLOR 1254 (30%), Method: PREINCUBATION) was “active; positive”.
`CCCCOc1cc([N+](=O)[O-])ccc1C(=O)NOC(C)=O` was tested, and the mutagenic call [3] was “active; positive” and the mutagenic call (Test System: AMES SALMONELLA TYPHIMURIUM, Strain/Indicator: TA100, Metabolic Activation: RAT S9, AROCLOR, Method: STANDARD PLATE) was “active; positive”.
In the case of `Clc1c2ccccc2cc2c1ccc1ccccc12`, the mutagenic call [4] was “active; positive”, the mutagenic call (Test System: AMES SALMONELLA TYPHIMURIUM, Strain/Indicator: TA100, Metabolic Activation: RAT, LIVER, S-9, AROCLOR 1254, Method: STANDARD PLATE) was “active; positive” and the mutagenic call (Test System: AMES SALMONELLA TYPHIMURIUM, Strain/Indicator: TA100, Metabolic Activation: RAT, LIVER, S-9, PCB, Method: STANDARD PLATE) was “active; positive”.
In the case of `O=C(/C=C/c1ccccc1)OC/C=C/c1ccccc1`, the mutagenic call (Test System: AMES SALMONELLA TYPHIMURIUM, Strain/Indicator: TA1538, Metabolic Activation: NONE, Method: PREINCUBATION) was “active; positive”, the mutagenic call [5] was “active; inconclusive (previous evaluation positive)” and the mutagenic call [6] was “active; positive”.
For `Cc1nc2c3c(ccc4ccc(O)cc43)ccc2n1C`, the mutagenic call [4] was “active; positive”.
For `CC(C)(Br)C(=O)O`, the mutagenic call (End Point: IN VITRO CHROMOSOMAL ABERRATIONS, Test System: CHL CELLS, Metabolic Activation: NONE) was “active; positive (structural changes)” and the mutagenic call (End Point: IN VITRO CHROMOSOMAL ABERRATIONS, Test System: CHL CELLS, Metabolic Activation: RAT, LIVER, S-9, SODIUM PHENOBARBITAL AND 5,6-BENZOFLAVONE) was “active; positive (structural changes)”.
In the case of `CC(NCc1ccccc1)C(=O)NCc1ccccc1` (centres undefined), the mutagenic call [3] was “inactive; negative”.
For `C1CSCN1`, the mutagenic call [2] was “active; positive”.
`CN(C)c1ccc(N=Nc2cccc(CCl)c2)cc1` was tested, and the mutagenic call (Test System: AMES SALMONELLA TYPHIMURIUM, Strain/Indicator: TA98, Metabolic Activation: RAT, LIVER, S-9, POLYCHLORINATED BIPHENYLS, Method: PREINCUBATION) was “active; positive” and the mutagenic call (Test System: AMES SALMONELLA TYPHIMURIUM, Strain/Indicator: TA100, Metabolic Activation: RAT, LIVER, S-9, POLYCHLORINATED BIPHENYLS, Method: PREINCUBATION) was “active; positive”.
With `CC(C)[C@]12CC(=O)[C@H](C)[C@H]1C2` the mutagenic call (Test System: AMES SALMONELLA TYPHIMURIUM, Strain/Indicator: TA98, Metabolic Activation: HAMSTER LIVER S-9, AROCLOR 1254, Method: STANDARD PLATE) was “inactive; negative”, the mutagenic call (Test System: AMES SALMONELLA TYPHIMURIUM, Strain/Indicator: TA98, Metabolic Activation: NONE, Method: STANDARD PLATE) was “inactive; negative” and the mutagenic call (Test System: AMES SALMONELLA TYPHIMURIUM, Strain/Indicator: TA98, Metabolic Activation: RAT LIVER S-9, AROCLOR 1254, Method: STANDARD PLATE) was “inactive; negative”. The mutagenic call (Test System: AMES SALMONELLA TYPHIMURIUM, Strain/Indicator: TA100, Metabolic Activation: HAMSTER LIVER S-9, AROCLOR 1254, Method: STANDARD PLATE) was “inactive; negative”, the mutagenic call [3] was “inactive; negative” and the mutagenic call (Test System: AMES SALMONELLA TYPHIMURIUM, Strain/Indicator: TA100, Metabolic Activation: RAT LIVER S-9, AROCLOR 1254, Method: STANDARD PLATE) was “inactive; negative”. The mutagenic call (Test System: AMES SALMONELLA TYPHIMURIUM, Strain/Indicator: TA102, Metabolic Activation: HAMSTER LIVER S-9, AROCLOR 1254, Method: STANDARD PLATE) was “inactive; negative”, the mutagenic call (Test System: AMES SALMONELLA TYPHIMURIUM, Strain/Indicator: TA102, Metabolic Activation: NONE, Method: STANDARD PLATE) was “inactive; negative” and the mutagenic call (Test System: AMES SALMONELLA TYPHIMURIUM, Strain/Indicator: TA102, Metabolic Activation: RAT LIVER S-9, AROCLOR 1254, Method: STANDARD PLATE) was “inactive; negative”. For the same compound, the mutagenic call (Test System: AMES SALMONELLA TYPHIMURIUM, Strain/Indicator: TA1535, Metabolic Activation: HAMSTER LIVER S-9, AROCLOR 1254, Method: STANDARD PLATE) was “inactive; negative”, the mutagenic call (Test System: AMES SALMONELLA TYPHIMURIUM, Strain/Indicator: TA1535, Metabolic Activation: NONE, Method: STANDARD PLATE) was “inactive; negative” and the mutagenic call (Test System: AMES SALMONELLA TYPHIMURIUM, Strain/Indicator: TA1535, Metabolic Activation: RAT LIVER S-9, AROCLOR 1254, Method: STANDARD PLATE) was “inactive; negative”. The mutagenic call (Test System: AMES SALMONELLA TYPHIMURIUM, Strain/Indicator: TA1537, Metabolic Activation: HAMSTER LIVER S-9, AROCLOR 1254, Method: STANDARD PLATE) was “inactive; negative”, the mutagenic call (Test System: AMES SALMONELLA TYPHIMURIUM, Strain/Indicator: TA1537, Metabolic Activation: NONE, Method: STANDARD PLATE) was “inactive; negative” and the mutagenic call (Test System: AMES SALMONELLA TYPHIMURIUM, Strain/Indicator: TA1537, Metabolic Activation: RAT LIVER S-9, AROCLOR 1254, Method: STANDARD PLATE) was “inactive; negative”. The mutagenic call [5] was “inactive; negative” and the mutagenic call [6] was “active; equivocal (previous evaluation positive)”.
`O=c1ccc2cc3c4c(c2o1)CCCN4CCC3` was tested, and the mutagenic call (Test System: AMES SALMONELLA TYPHIMURIUM, Strain/Indicator: TA1538, Metabolic Activation: NONE, Method: STANDARD PLATE) was “inactive; negative” and the mutagenic call (Test System: AMES SALMONELLA TYPHIMURIUM, Strain/Indicator: TA1538, Metabolic Activation: RAT, LIVER, S-9, AROCLOR 1254, Method: STANDARD PLATE) was “active; positive”.
With `C[C@]12CCC(=O)C=C1CC[C@@H]1[C@@H]2[C@@H](O)C[C@@]2(C)[C@H]1CC[C@]2(O)C(=O)CO` the mutagenic call (End Point: IN VITRO CHROMOSOMAL ABERRATIONS, Test System: HUMAN PERIPHERAL BLOOD LYMPHOCYTES, Metabolic Activation: NONE) was “active; positive” and the mutagenic call (Test System: UDS RAT HEPATOCYTES, Strain/Indicator: THY INCORP (18-20 HR), Metabolic Activation: NONE, Method: LIQUID SCINTILLATION COUNTING) was “inactive; negative”.
